Legend:
[1] = biological target: Carbonic anhydrase 5A, mitochondrial (Homo sapiens, UniProt P35218); assay: Binding affinity towards recombinant human mitochondrial carbonic anhydrase V
Carbonic anhydrase 2 = Carbonic anhydrase 2 (Homo sapiens, UniProt P00918); assay: Binding affinity towards human cytosolic carbonic anhydrase II
Carbonic anhydrase 9 = Carbonic anhydrase 9 (Homo sapiens, UniProt Q16790); assay: Binding affinity owards recombinant human transmembrane carbonic anhydrase IX
Carbonic anhydrase 4 = Carbonic anhydrase 4 (Homo sapiens, UniProt P22748); assay: Binding affinity towards human membrane associated carbonic anhydrase IV
Sequence of Carbonic anhydrase 4 (P22748 whole entry): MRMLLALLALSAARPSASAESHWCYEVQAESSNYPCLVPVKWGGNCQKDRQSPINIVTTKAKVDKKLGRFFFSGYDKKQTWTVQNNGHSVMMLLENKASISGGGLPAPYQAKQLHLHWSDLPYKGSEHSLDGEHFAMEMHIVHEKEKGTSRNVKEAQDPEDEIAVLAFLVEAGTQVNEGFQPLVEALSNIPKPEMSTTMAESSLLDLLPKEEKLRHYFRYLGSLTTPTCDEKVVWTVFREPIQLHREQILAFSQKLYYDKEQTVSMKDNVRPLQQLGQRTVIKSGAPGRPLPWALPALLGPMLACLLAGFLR

[2] = biological target: Carbonic anhydrase 1 (Homo sapiens) (UniProt P00915); assay: Activation constant towards human cytosolic carbonic anhydrase I; Activator
Sequence of Carbonic anhydrase 1 (Homo sapiens) (P00915 2-261 limits assumed): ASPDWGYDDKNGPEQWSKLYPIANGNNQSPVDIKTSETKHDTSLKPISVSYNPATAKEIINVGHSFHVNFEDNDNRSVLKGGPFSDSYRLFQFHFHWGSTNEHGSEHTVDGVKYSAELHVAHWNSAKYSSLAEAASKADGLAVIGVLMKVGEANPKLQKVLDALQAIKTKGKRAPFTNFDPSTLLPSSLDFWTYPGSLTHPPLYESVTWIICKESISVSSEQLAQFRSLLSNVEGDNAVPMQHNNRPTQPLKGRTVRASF

Sequence of Carbonic anhydrase 5A, mitochondrial (P35218 whole entry): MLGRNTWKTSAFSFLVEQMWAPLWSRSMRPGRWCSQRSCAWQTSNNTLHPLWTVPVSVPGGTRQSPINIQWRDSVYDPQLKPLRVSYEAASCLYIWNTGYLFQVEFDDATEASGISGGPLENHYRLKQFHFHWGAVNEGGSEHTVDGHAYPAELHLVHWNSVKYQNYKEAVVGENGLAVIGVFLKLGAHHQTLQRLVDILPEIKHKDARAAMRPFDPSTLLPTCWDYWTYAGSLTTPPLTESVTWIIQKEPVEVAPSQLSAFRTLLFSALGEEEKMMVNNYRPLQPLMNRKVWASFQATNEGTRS

| SMILES | Ki [1] [µM] | Ki (Carbonic anhydrase 2) [µM] | Ki (Carbonic anhydrase 9) [µM] | Ki (Carbonic anhydrase 4) [µM] | KA [2] [mM] |
| --- | --- | --- | --- | --- | --- |
| CC(OP(=O)(O)O)C(N)C(=O)O (configuration not stated) | 850 | 1080 | 1230 | 3180 | 0.5 |
| N[C@@H](COP(=O)(O)O)C(=O)O [DEXFOSFOSERINE] | 360 | 420 | 920 | 4260 | 0.1 |
| O=C(O)P(=O)(O)O [FOSCARNET] | 41700 |  |  |  | 0.012 |
| O=P(O)(O)CP(=O)(O)O [MEDRONIC ACID] | 730 | 1250 | 860 | 5340 | 0.2 |
| O=C(O)C[C@H](NC(=O)CP(=O)(O)O)C(=O)O [PALA] | 370 | 7.8 | 2250 | 0.079 | 0.1 |
| O=P(O)(O)c1ccccc1 [PHENYLPHOSPHONIC ACID] | 90 | 0.099 | 2210 | 5.4 | 0.0001 |

Source: ChEMBL document CHEMBL1142045, “Carbonic anhydrase inhibitors. Interaction of isozymes I, II, IV, V, and IX with organic phosphates and phosphonates” (Bioorg Med Chem Lett, 2005)
